The nature of data set [1]: Water sorption and desorption (hygroscopicity) of crystalline forms. It counts as physicochemical. The following applies: for maximum water uptake: at 25° C. up to 95% RH; for hygroscopicity: crystalline solid form. The text has this: The crystalline forms of compound of Formula (I), its salts and solvates can be characterized by a number of methods, including but not limited to, Powder X-Ray diffraction (PXRD), simulated powder X-ray patterns (Yin. S.; Scaringe, R. P.; DiMarco, J.; Galella, M. and Gougoutas, J. Z., American Pharmaceutical Review, 2003, 6, 2, 80), Differential scanning calorimetry (DSC) experiments, Solid-state C-13 NMR measurements, (W. L. Earl and D. L. VanderHart, J. Magn. Reson., 1982, 48, 35-54), Raman spectroscopy, Infra-red spectroscopy, Moisture sorption isotherms (VTI—variable temperature isotherms), and hot stage techniques.
(§1) The crystalline forms HA, A, B, C, and D obtained in Examples 11-16 are analyzed by various standard methods: XPRD, DSC, TGA, Microscopy. Water sorption and desorption is also examined.

Data set [2] in a line: Heating of the hemihydrate form (dehydration and form conversion). It counts as physicochemical. The conditions noted are these: upon heating. As for the experimental part:
Form B can be obtained by heating the hemihydrate Form HA above 100° C. over a period of time to remove the water completely, by equilibrating the hemihydrate Form HA in heptane at 50° C., or by cooling crystallization from methyl isobutyl ketone.
as §1

For the compound `CN[C@@H](C)C(=O)N[C@H](C(=O)N1CCC[C@H]1c1nc(C(=O)c2ccc(F)cc2)cs1)C1CCCCC1` [Form A, (S)—N—((S)-1-cyclohexyl-2-{(S)-2-[4-(4-fluoro-benzoyl)-thiazol-2-yl]-pyrrolidin-1-yl}-2-oxo-ethyl)-2-methylamino-propionamide], in data set [1], the maximum water uptake result is on record as “about 0.8%” and the hygroscopicity result is on record as “slightly hygroscopic”.

For the compound `CN[C@@H](C)C(=O)N[C@H](C(=O)N1CCC[C@H]1c1nc(C(=O)c2ccc(F)cc2)cs1)C1CCCCC1` [Form HA, (S)—N—((S)-1-cyclohexyl-2-{(S)-2-[4-(4-fluoro-benzoyl)-thiazol-2-yl]-pyrrolidin-1-yl}-2-oxo-ethyl)-2-methylamino-propionamide], the water content in data set [1] (between 10% relative humidity (RH) and 70% RH) is on record as about 1.7%. In addition, the hygroscopicity entry in data set [1] is “slightly hygroscopic”. Besides, the “additional moisture taken up” value in data set [1] (from 70% RH to 95% RH) is listed as about 0.4%. Further, the “heating temperature at which the form loses water and converts to Form B” value in data set [2] was “above 100 °C”.

Turning to `CN[C@@H](C)C(=O)N[C@H](C(=O)N1CCC[C@H]1c1nc(C(=O)c2ccc(F)cc2)cs1)C1CCCCC1` [Form B, (S)—N—((S)-1-cyclohexyl-2-{(S)-2-[4-(4-fluoro-benzoyl)-thiazol-2-yl]-pyrrolidin-1-yl}-2-oxo-ethyl)-2-methylamino-propionamide], in data set [1], the maximum water uptake result is given as “about 0.5%” and the hygroscopicity result is on record as “slightly hygroscopic”.

`CN[C@@H](C)C(=O)N[C@H](C(=O)N1CCC[C@H]1c1nc(C(=O)c2ccc(F)cc2)cs1)C1CCCCC1` [Form C, (S)—N—((S)-1-cyclohexyl-2-{(S)-2-[4-(4-fluoro-benzoyl)-thiazol-2-yl]-pyrrolidin-1-yl}-2-oxo-ethyl)-2-methylamino-propionamide]: in data set [1], the maximum water uptake result is “less than 0.2%” and the hygroscopicity result is on record as “nonhygroscopic”.

Take `CN[C@@H](C)C(=O)N[C@H](C(=O)N1CCC[C@H]1c1nc(C(=O)c2ccc(F)cc2)cs1)C1CCCCC1` [Form D, (S)—N—((S)-1-cyclohexyl-2-{(S)-2-[4-(4-fluoro-benzoyl)-thiazol-2-yl]-pyrrolidin-1-yl}-2-oxo-ethyl)-2-methylamino-propionamide]: in data set [1], the maximum water uptake entry is “less than 0.5%” and the hygroscopicity result is recorded as “slightly hygroscopic”.

For the origin of these results see patent publication US9540363B2, “Solid oral formulations and crystalline forms of an inhibitor of apoptosis protein” (Novartis AG, priority 2009, dated 2017).
